In US20140005177A1, “PYRIDINYL- AND PYRAZINYL-METHYLOXY-ARYL DERIVATIVES USEFUL AS INHIBITORS OF SPLEEN TYROSINE KINASE (SYK)” (GLAXO GROUP LIMITED, priority 2011, published 2014):
Structures can show the parent of a compound that is named as a salt.

Tested on: Ramos B cells
Assay: Ramos pErk assay (anti-IgM stimulated B cells, pErk MSD)
Type: cell-based
Details: Homo sapiens, Ramos, anti-IgM 5 μg/ml, pErk readout, read-out: average pIC50 (converted)
Experimental: Ramos B cells (human B cells of Burkitt's Lymphoma) are stimulated using anti-IgM. […] The subsequent autophosphorylation of Syk leads to initiation of a signalling cascade resulting in B cell activation via the Erk MAP Kinase pathway. As a result Erk is phosphorylated and following cell lysis is detected by an immune capture assay.
Cells were plated at a density of 2.5×10^5/well in a volume of 25 μl assay medium (RPMI containing 10% heat inactivated foetal calf serum, 1% L-glutamine) in 96 v-well polypropylene plates. 25 μl appropriately diluted compound solution was added and the plate incubated for 30 min at 37° C. with 5% CO2. Cells were stimulated with 5 μl Fab′2 fragments of goat anti-human IgM (5 μg/ml final) for 7 min at 37° C. Cells are lysed by the addition of 55 μL 2×RIPA lysis buffer for 2 h at 4° C. Lysate may be frozen at this point at −80° C.
50 μl cell lysate was transferred to a 96 well MSD plate coated with anti-pErk1/2 (Thr/Tyr: 202/204; 185/187) capture antibody and incubated for 16 hours at 4° C. or 3 hours at room temperature. The plate was washed and an anti-pErk detection antibody added (25 μl/well) for 1 hour at room temperature. This was removed, 150 μL MSD read buffer added and the resultant electrochemiluminescence signal measured.
Compound was prepared as a 10 mM stock in DMSO and a dilution series prepared in DMSO using 9 successive 5-fold dilutions. This dilution series was diluted a further 1:100 with assay medium to give the final concentration range to be tested of 5×10^−5 to 2.56×10^−11M. Compound dilutions were prepared using the Biomek 2000 and Biomek Nx automated robotic pipetting systems.

Compound | IC50 [µM]
COc1cccc(OCc2cc(C)ccn2)c1-c1ccc2c(c1)CCNCC2 [Example 2, 7-(2-(methyloxy)-6-{[(4-methyl-2-pyridinyl)methyl]oxy}phenyl)-2,3,4,5-tetrahydro-1H-3-benzazepine] | 0.158 to 6.31
COc1ccc(-c2ccc3c(c2)CCNCC3)c(OCc2cc(C)ccn2)c1 [Example 3, 7-(4-(methyloxy)-2-{[(4-methyl-2-pyridinyl)methyl]oxy}phenyl)-2,3,4,5-tetrahydro-1H-3-benzazepine] | 0.158 to 6.31
Cc1ccnc(COc2ccc(F)cc2-c2ccc3c(c2)CNCC3)c1 [Example 6, 7-(5-fluoro-2-{[(4-methyl-2-pyridinyl)methyl]oxy}phenyl)-1,2,3,4-tetrahydroisoquinoline] | 0.158 to 6.31
COc1ccnc(COc2ccccc2-c2ccc3c(c2)CCNCC3)c1 [Example 7, 7-[2-({[4-(methyloxy)-2-pyridinyl]methyl}oxy)phenyl]-2,3,4,5-tetrahydro-1H-3-benzazepine] | 0.158 to 6.31
Cc1ccnc(COc2ccc(C)cc2-c2ccc3c(c2)CNCC3)c1 [Example 10, 7-(5-methyl-2-{[(4-methyl-2-pyridinyl)methyl]oxy}phenyl)-1,2,3,4-tetrahydroisoquinoline] | 0.158 to 6.31
COc1cccc(OCc2cc(C)ccn2)c1-c1ccc2c(c1)CNCC2 [Example 11, 7-(2-(methyloxy)-6-{[(4-methyl-2-pyridinyl)methyl]oxy}phenyl)-1,2,3,4-tetrahydroisoquinoline] | 0.158 to 6.31
CCOc1ccc(OCc2cc(C)ccn2)c(-c2ccc3c(c2)CNCC3)c1 [Example 12, 7-(5-(ethyloxy)-2-{[(4-methyl-2-pyridinyl)methyl]oxy}phenyl)-1,2,3,4-tetrahydroisoquinoline] | 0.158 to 6.31
Cc1ccnc(COc2ccc(C(F)(F)F)cc2-c2ccc3c(c2)CNCC3)c1 [Example 15, 7-[2-{[(4-methyl-2-pyridinyl)methyl]oxy}-5-(trifluoromethyl)phenyl]-1,2,3,4-tetrahydroisoquinoline] | 0.158 to 6.31
COc1ccc(OCc2cc(C)ccn2)c(-c2ccc3c(c2)CNCC3)c1 [Example 16, 7-(5-(methyloxy)-2-{[(4-methyl-2-pyridinyl)methyl]oxy}phenyl)-1,2,3,4-tetrahydroisoquinoline] | 0.158 to 6.31
Cc1ccnc(COc2ccc(C(C)(C)C)cc2-c2ccc3c(c2)CNCC3)c1 [Example 17, 7-(5-(1,1-dimethylethyl)-2-{[(4-methyl-2-pyridinyl)methyl]oxy}phenyl)-1,2,3,4-tetrahydroisoquinoline] | 0.158 to 6.31
Cc1ccnc(COc2ccc(C)nc2-c2ccc3c(c2)CCNCC3)c1 [Example 19, 7-(6-methyl-3-{[(4-methyl-2-pyridinyl)methyl]oxy}-2-pyridinyl)-2,3,4,5-tetrahydro-1H-3-benzazepine, trifluoroacetate] | 0.158 to 6.31
COc1ccc(OCc2cnccn2)c(-c2ccc3c(c2)CCNCC3)c1 [Example 20, 7-{5-(methyloxy)-2-[(2-pyrazinylmethyl)oxy]phenyl}-2,3,4,5-tetrahydro-1H-3-benzazepine, trifluoroacetate] | 0.158 to 6.31
CC(=O)c1ccc(OCc2cc(C)ccn2)c(-c2ccc3c(c2)CCNCC3)c1 [Example 24, 1-[4-{[(4-methyl-2-pyridinyl)methyl]oxy}-3-(2,3,4,5-tetrahydro-1H-3-benzazepin-7-yl)phenyl]ethanone, trifluoroacetate] | 0.158 to 6.31

Other lines, results leading:

IC50 [µM] | Compound
0.158 to 6.31 | COc1ccc(OCc2cc(C)ccn2)c(-c2ccc3c(c2)CCNCC3)c1 [Example 22, 7-(5-(methyloxy)-2-{[(4-methyl-2-pyridinyl)methyl]oxy}phenyl)-2,3,4,5-tetrahydro-1H-3-benzazepine, trifluoroacetate]
0.158 to 6.31 | Cc1ccnc(COc2ccc(F)cc2-c2ccc3c(c2)CCNCC3)c1 [Example 26, 7-(5-fluoro-2-{[(4-methyl-2-pyridinyl)methyl]oxy}phenyl)-2,3,4,5-tetrahydro-1H-3-benzazepine]
0.158 to 6.31 | Cc1ccnc(COc2ccc(C)cc2-c2ccc3c(c2)CCNCC3)c1 [Example 27, 7-(5-methyl-2-{[(4-methyl-2-pyridinyl)methyl]oxy}phenyl)-2,3,4,5-tetrahydro-1H-3-benzazepine]
0.158 to 6.31 | CCOc1ccc(OCc2cc(C)ccn2)c(-c2ccc3c(c2)CCNCC3)c1 [Example 28, 7-(5-(ethyloxy)-2-{[(4-methyl-2-pyridinyl)methyl]oxy}phenyl)-2,3,4,5-tetrahydro-1H-3-benzazepine]
0.158 to 6.31 | Cc1ccnc(COc2ccc(C#N)cc2-c2ccc3c(c2)CCNCC3)c1 [Example 30, 4-{[(4-methyl-2-pyridinyl)methyl]oxy}-3-(2,3,4,5-tetrahydro-1H-3-benzazepin-7-yl)benzonitrile]
0.158 to 6.31 | Cc1ccnc(COc2ccc(C(F)(F)F)cc2-c2ccc3c(c2)CCNCC3)c1 [Example 31, 7-[2-{[(4-methyl-2-pyridinyl)methyl]oxy}-5-(trifluoromethyl)phenyl]-2,3,4,5-tetrahydro-1H-3-benzazepine]
0.158 to 6.31 | Cc1ccnc(COc2ccc(C(C)(C)C)cc2-c2ccc3c(c2)CCNCC3)c1 [Example 32, 7-(5-(1,1-dimethylethyl)-2-{[(4-methyl-2-pyridinyl)methyl]oxy}phenyl)-2,3,4,5-tetrahydro-1H-3-benzazepine]
0.158 to 6.31 | CCc1ccnc(COc2ccc(C)nc2-c2ccc3c(c2)CCNCC3)c1 [Example 33, 7-(3-{[(4-ethyl-2-pyridinyl)methyl]oxy}-6-methyl-2-pyridinyl)-2,3,4,5-tetrahydro-1H-3-benzazepine]
0.158 to 6.31 | Cc1ccnc(COc2ccc(C(C)(C)C)nc2-c2ccc3c(c2)CCNCC3)c1 [Example 34, 7-(6-(1,1-dimethylethyl)-3-{[(4-methyl-2-pyridinyl)methyl]oxy}-2-pyridinyl)-2,3,4,5-tetrahydro-1H-3-benzazepine]
0.158 to 6.31 | CCc1ccnc(COc2ccc(C(C)=O)cc2-c2ccc3c(c2)CCNCC3)c1 [Example 35, 1-[4-{[(4-ethyl-2-pyridinyl)methyl]oxy}-3-(2,3,4,5-tetrahydro-1H-3-benzazepin-7-yl)phenyl]ethanone]
0.158 to 6.31 | CCOc1ccnc(COc2ccc(C(C)=O)cc2-c2ccc3c(c2)CCNCC3)c1 [Example 36, 1-[4-({[4-(ethyloxy)-2-pyridinyl]methyl}oxy)-3-(2,3,4,5-tetrahydro-1H-3-benzazepin-7-yl)phenyl]ethanone]
0.158 to 6.31 | COc1ccc(OCc2ccccn2)c(-c2ccc3c(c2)CCNCC3)c1 [Example 37, 7-{5-(methyloxy)-2-[(2-pyridinylmethyl)oxy]phenyl}-2,3,4,5-tetrahydro-1H-3-benzazepine]
0.158 to 6.31 | CC(=O)c1ccc(OCc2ccccn2)c(-c2ccc3c(c2)CNCC3)c1 [Example 38, 1-[4-[(2-pyridinylmethyl)oxy]-3-(1,2,3,4-tetrahydro-7-isoquinolinyl)phenyl]ethanone]
0.158 to 6.31 | CNC(=O)c1ccc(OCc2cc(C)ccn2)c(-c2ccc3c(c2)CCNCC3)c1 [Example 39, N-methyl-4-{[(4-methyl-2-pyridinyl)methyl]oxy}-3-(2,3,4,5-tetrahydro-1H-3-benzazepin-7-yl)benzamide]

Same assay, conditions: Homo sapiens, anti-IgM 5 μg/ml, pErk readout, read-out: average pIC50 (converted)

Compound | IC50 [µM]
COc1cccc(OCc2cc(C)ccn2)c1-c1ccc2c(c1)CCNCC2 [Example 2, 7-(2-(methyloxy)-6-{[(4-methyl-2-pyridinyl)methyl]oxy}phenyl)-2,3,4,5-tetrahydro-1H-3-benzazepine] | ≤ 1
COc1ccc(-c2ccc3c(c2)CCNCC3)c(OCc2cc(C)ccn2)c1 [Example 3, 7-(4-(methyloxy)-2-{[(4-methyl-2-pyridinyl)methyl]oxy}phenyl)-2,3,4,5-tetrahydro-1H-3-benzazepine] | ≤ 1
CC(=O)c1ccc(OCc2cc(C)ccn2)c(-c2ccc3c(c2)CCNCC3)c1 [Example 4, 1-[4-{[(4-methyl-2-pyridinyl)methyl]oxy}-3-(2,3,4,5-tetrahydro-1H-3-benzazepin-7-yl)phenyl]ethanone] | ≤ 1
